Molecular target: T1, HIV-1 protease (Human immunodeficiency virus type 1 group M subtype B, UniProt P04585)
T1 construct: The protease (or proteinase), consisting of only 99 amino acids, is among the smallest enzymes known
Assay: In vitro HIV protease inhibitory assay (HIV Protease FITC Assay)
Assay type: biochemical
Settings: for inhibition at 1 µM / inhibition at 10 µM / inhibition at 100 µM / inhibition at 0.123 µM / inhibition at 0.37 µM / inhibition at 1.1 µM / inhibition at 3.3 µM / inhibition at 30 µM / inhibition at 0.41 µM / inhibition at 1.23 µM / inhibition at 3.7 µM / inhibition at 11 µM / inhibition at 33 µM: read-out: HIV-1 Protease % Inhib; for inhibition at 0.123 µM: HIV-1 Dose 0.123 uM; for inhibition at 0.37 µM: HIV-1 Dose 0.370 uM; for inhibition at 1.1 µM: HIV-1 Dose 1.100 uM; for inhibition at 3.3 µM: HIV-1 Dose 3.300 uM; for inhibition at 30 µM: HIV-1 Dose 30.000 uM; for inhibition at 0.41 µM: HIV-1 Dose 0.410 uM; for inhibition at 1.23 µM: HIV-1 Dose 1.230 uM; for inhibition at 3.7 µM: HIV-1 Dose 3.700 uM; for inhibition at 11 µM: HIV-1 Dose 11.000 uM; for inhibition at 33 µM: HIV-1 Dose 33.000 uM; for Ki: read-out: HIV-1 FITC Ki
Method: The HIV protease screening assay is based on a fluorescently labeled substrate which can be resolved from nonlabeled cleavage product using avidin-polystyrene particles, 0.7-0.9 µm. The substrate is biotinylated at the amino terminal arginine and fluorescently labeled with fluorescein isothiocynate (FITC) at the carboxyl terminal lysine. […] Substrate (20 µl of 0.2 µM), sample (10 µl of desired concentraion), and enzyme (10 µl of 0.1 µM) are added to a 96 well pandex plate. The assay is run in 0.1 M sodium acetate buffer at pH 5.5 in the presence of 1.0 M sodium chloride and 0.05% NP-40 and incubated in the dark for one hour at room temperature. Avidin coated polystyrene beads {40 µl of 0.1% (w/v)} are added and the incubation is continued in the dark for an additional half hour. The labeled cleavage product is separated from the unreacted substrate via filtration and is read on the Idexx Screen Machine. The data are analyzed by appropriate computer algorithms to ascertain percent inhibition values.

## O=c1oc(C(Cc2ccccc2)Cc2ccccc2)cc(O)c1C(c1ccccc1)C1CC1 (stereo not drawn) [Example 23, 3-(α-cyclopropylbenzyl)-6-(α-benzylphenethyl)-4-hydroxy-2H-Pyran-2-one]
  IC50: 3000 nM
HIV-1 Dose 1.000 uM
  inhibition at 1 µM: < 10%
HIV-1 Dose 10.000 uM
  inhibition at 10 µM: 77.9%
HIV-1 Dose 100.000 uM
  inhibition at 100 µM: 87%

## 3-(.alpha.-ethylbenzyl)-4-hydroxy-6-propyl-2H-Pyran-2-one [Example 9]
  IC50: 19200 nM
HIV-1 Dose 1.000 uM
  HIV-1 Protease % Inhib: 16.27%
HIV-1 Dose 10.000 uM
  HIV-1 Protease % Inhib: 73.49%
HIV-1 Dose 100.000 uM
  HIV-1 Protease % Inhib: 98.35%

## O=C1OC(CCc2ccccc2)(CCc2ccccc2)CC(O)=C1C(c1ccccc1)c1ccccc1 [Example 235, 2H-Pyran-2-one, 5,6-dihydro-3-diphenylmethyl4-hydroxy-6,6-di-(2-phenylethyl)-]
  inhibition at 0.123 µM: < 10%
  inhibition at 0.37 µM: 13.7%
  inhibition at 1.1 µM: 33.2%
  inhibition at 3.3 µM: 61.6%
  inhibition at 30 µM: 80.1%
HIV-1 Dose 10.000 uM
  inhibition at 10 µM: 73.3%

## COCCOCCOCCc1c(C(CC2CC2)CC2CC2)oc(=O)c(C(c2ccccc2)C2CC2)c1O (centres unmarked) [Example 112]
  inhibition at 0.41 µM: < 10%
  inhibition at 1.23 µM: < 10%
  inhibition at 3.7 µM: 10.4%
  inhibition at 11 µM: 18.9%
  inhibition at 33 µM: 37.1%
HIV-1 Dose 100.000 uM
  inhibition at 100 µM: 46.5%

## CCC(Cc1cccc(C(F)(F)F)c1)c1cc(O)c(C(c2ccccc2)C2CC2)c(=O)o1 (stereo not drawn) [Example 161, 3-(α-cyclopropylbenzyl)-4-hydroxy-6-(α-ethyl-m-triflurormethylphenethyl)-2H-pyran-2-one]
  inhibition at 0.123 µM: < 10%
  inhibition at 0.37 µM: < 10%
  inhibition at 1.1 µM: 41.8%
  inhibition at 3.3 µM: 78%
  inhibition at 30 µM: 105%
HIV-1 Dose 10.000 uM
  inhibition at 10 µM: 96.5%

## C=CC(C1=C(O)CC2(CCCCCC2)OC1=O)c1ccccc1 (centres unmarked) [Example 127, 4-Hydroxy-3-(1-phenylallyl)-1-oxa-spiro[5.6]-dodec-3-en-2-one]
  inhibition at 0.123 µM: < 10%
  inhibition at 0.37 µM: 14.4%
  inhibition at 1.1 µM: 38.4%
  inhibition at 3.3 µM: 65.6%
  inhibition at 30 µM: 102%
HIV-1 Dose 10.000 uM
  inhibition at 10 µM: 98.9%

## O=c1oc(C(Cc2ccccc2)CC2CC2)cc(O)c1C(c1ccccc1)C1CC1 (centres unmarked) [Example 88, 6-(1-Benzyl-2-cyclopropyl-ethyl)-3-(cyclopropyl-phenyl-methyl)-4-hydroxy-pyran-2-one]
HIV-1 Dose 1.000 uM
  inhibition at 1 µM: 46.2%
HIV-1 Dose 10.000 uM
  inhibition at 10 µM: 60.8%
HIV-1 Dose 100.000 uM
  inhibition at 100 µM: 95.1%

## O=c1oc(CC(O)c2ccccc2Cl)cc(O)c1C(c1ccccc1)C1CC1 (stereo not drawn) [Example 151, 3-(α-cyclopropylbenzyl)-4-hydroxy-6-(β-hydroxy-o-chlorophenethyl)-2H-pyran-2-one]
  inhibition at 0.123 µM: < 10%
  inhibition at 0.37 µM: < 10%
  inhibition at 1.1 µM: 19.1%
  inhibition at 3.3 µM: 39.8%
  inhibition at 30 µM: 88.4%
HIV-1 Dose 10.000 uM
  inhibition at 10 µM: 70.1%
HIV-1 Dose 100.000 uM
  inhibition at 100 µM: 113%

## Cc1ccc(S(=O)(=O)Nc2cccc(C(c3c(O)cc(C(CC4CC4)CC4CCCOC4)oc3=O)C3CC3)c2)cc1 (centres unmarked) [Example 245]
  inhibition at 0.123 µM: 25.9%
  inhibition at 0.37 µM: 58%
  inhibition at 1.1 µM: 83.3%
  inhibition at 3.3 µM: 90.3%
  inhibition at 30 µM: 94.1%
  Ki: 20.6 nM
HIV-1 Dose 10.000 uM
  inhibition at 10 µM: 96.9%

## CCC(Cc1cccc2ccccc12)c1cc(O)c(C(CC)c2ccccc2)c(=O)o1 (stereo not drawn) [Example 19, 3-(α-ethylbenzyl)-4-hydroxy-6-(1-ethyl-2-naphth-1-ylethyl)-2H-Pyran-2-one]
HIV-1 Dose 1.000 uM
  inhibition at 1 µM: 11%
HIV-1 Dose 10.000 uM
  inhibition at 10 µM: 79.3%
HIV-1 Dose 100.000 uM
  inhibition at 100 µM: 84.3%

## O=c1oc(CC(O)c2ccco2)cc(O)c1C(c1ccccc1)C1CC1 (centres unmarked) [Example 117, 3-(Cyclopropyl-phenyl-methyl)-6-(2-furan-2-yl-2-hydroxy-ethyl)-4-hydroxy-pyran-2]
  inhibition at 0.123 µM: < 10%
  inhibition at 0.37 µM: < 10%
  inhibition at 1.1 µM: 17%
  inhibition at 3.3 µM: 51.2%
  inhibition at 30 µM: 101%
HIV-1 Dose 10.000 uM
  inhibition at 10 µM: 87%

## CCC(c1ccccc1)c1cc(O)c(C(CC)c2ccccc2)c(=O)o1 (stereo not drawn) [Example 186, 3-α-Ethylbenzyl-6-α-ethylbenzyl-4-hydroxy-2H-pyran-2-one]
  inhibition at 0.123 µM: < 10%
  inhibition at 0.37 µM: < 10%
  inhibition at 1.1 µM: < 10%
  inhibition at 3.3 µM: 11%
  inhibition at 30 µM: 61.6%
  Ki: 22.4 nM
HIV-1 Dose 10.000 uM
  inhibition at 10 µM: 41.6%

## C=CC(c1ccccc1)c1c(O)cc(CCc2ccccc2)oc1=O (stereo not drawn) [Example 12, 4-hydroxy-6-phenethyl-3-(α-vinylbenzyl)-2H-Pyran-2-one]
  IC50: 5400 nM
HIV-1 Dose 1.000 uM
  inhibition at 1 µM: 17.5%
HIV-1 Dose 10.000 uM
  inhibition at 10 µM: 67.4%
HIV-1 Dose 100.000 uM
  HIV-1 Protease % Inhib: 107%
  inhibition at 100 µM: 107%

## O=c1oc(CC2CCOCC2)cc(O)c1C(c1ccccc1)C1CC1 (centres unmarked) [Example 144, 3-(Cyclopropylphenylmethyl)-4-hydroxy-6-[(tetrahydro-2H-pyran-4-yl)methyl]-2H-pyran-2-one]
  inhibition at 0.123 µM: < 10%
  inhibition at 0.37 µM: < 10%
  inhibition at 1.1 µM: < 10%
  inhibition at 3.3 µM: < 10%
  inhibition at 30 µM: 22.7%
HIV-1 Dose 10.000 uM
  inhibition at 10 µM: < 10%

## CCC(Cc1ccccc1)c1cc(O)c(C(c2cccc(NC(=O)OCc3ccccc3)c2)C2CC2)c(=O)o1 (stereo not drawn) [Example 36, 3-(α-Cyclopropyl-meta-(benzyloxycarbonylamino)benzyl)-6-(α-ethyl-phenethyl)-4-hydroxy-2H-pyran-2-one]
  inhibition at 0.41 µM: < 10%
  inhibition at 1.23 µM: 13.7%
  inhibition at 3.7 µM: 43.4%
  inhibition at 11 µM: 73.7%
  inhibition at 33 µM: 77.2%
HIV-1 Dose 100.000 uM
  inhibition at 100 µM: 87.5%

## CCC(CC1CCOC1)c1cc(O)c(C(c2ccccc2)C2CC2)c(=O)o1 (centres unmarked) [Example 45, 3-(Cyclopropyl-phenyl-methyl)-4-hydroxy-6-(1-(tetrahydro-furan-3-ylmethyl)-propyl)-pyran-2-one]
  inhibition at 0.41 µM: 79.3%
  inhibition at 1.23 µM: 94.4%
  inhibition at 3.7 µM: 101%
  inhibition at 11 µM: 103%
  inhibition at 33 µM: 114%
  Ki: 53 nM
HIV-1 Dose 100.000 uM
  inhibition at 100 µM: 116%

## CCC(Cc1ccccc1)c1cc(O)c(C(c2cccc(NS(=O)(=O)c3ccc(Br)cc3)c2)C2CC2)c(=O)o1 (stereo not drawn) [Example 181, 3-(α-Cyclopropyl-meta-(4-bromophenylsulfonylamino)benzyl)-6-(α-ethylphenethyl)-4-hydroxy-2H-pyran-2-one]
  inhibition at 0.123 µM: 32.6%
  inhibition at 0.37 µM: 64.5%
  inhibition at 1.1 µM: 82.4%
  inhibition at 3.3 µM: 95.3%
  inhibition at 30 µM: 95.5%
  Ki: 18.9 nM
HIV-1 Dose 10.000 uM
  inhibition at 10 µM: 101%

## CCC(Cc1cccnc1)c1cc(O)c(C(c2ccccc2)C2CC2)c(=O)o1 (centres unmarked) [Example 70, 3-(Cyclopropyl-phenyl-methyl)-4-hydroxy-6-(1-pyridin-3-ylmethyl-propyl)-pyran-2-one]
  inhibition at 0.123 µM: < 10%
  inhibition at 0.37 µM: 38.3%
  inhibition at 1.1 µM: 67.3%
  inhibition at 3.3 µM: 88.9%
  inhibition at 30 µM: 98.6%
  Ki: 64 nM
HIV-1 Dose 10.000 uM
  inhibition at 10 µM: 92.8%

## CCC(c1ccccc1)c1c(O)cc(CCc2ccc(Br)cc2)oc1=O (stereo not drawn) [Example 6, 6-(p-bromophenethyl)-3-(α-ethylbenzyl)-4-hydroxy-2H-Pyran-2-one]
HIV-1 Dose 1.000 uM
  inhibition at 1 µM: 15.6%
HIV-1 Dose 10.000 uM
  inhibition at 10 µM: 39.6%
HIV-1 Dose 100.000 uM
  inhibition at 100 µM: 69.7%

## CCC(CC1=CCCOC1)c1cc(O)c(C(c2ccccc2)C2CC2)c(=O)o1 (centres unmarked) [Example 76, 3-(Cyclopropyl-phenyl-methyl)-6-[1-(5,6-dihydro-2H-pyran-3-ylmethyl)-propyl]-4-hydroxy-pyran-2-one]
  inhibition at 0.123 µM: 25%
  inhibition at 0.37 µM: 54%
  inhibition at 1.1 µM: 82.4%
  inhibition at 3.3 µM: 98.9%
  inhibition at 30 µM: 105%
HIV-1 Dose 10.000 uM
  inhibition at 10 µM: 102%

## CCC(Cc1ccccc1)c1cc(O)c(C(c2cccc(NC(=O)CC[C@H](NC(=O)OCc3ccccc3)C(=O)OCc3ccccc3)c2)C2CC2)c(=O)o1 (stereo partly drawn) [Example 225, 3-(α-Cyclopropyl-meta-(N-benzyloxycarbonyl-O-α-benzyl-L-glutamylamino)benzyl)-6-(α-ethylphenethyl)-4-hydroxy-2H-pyran-2-one]
  inhibition at 0.123 µM: < 10%
  inhibition at 0.37 µM: < 10%
  inhibition at 1.1 µM: < 10%
  inhibition at 3.3 µM: 21%
  inhibition at 30 µM: 35.5%
HIV-1 Dose 10.000 uM
  inhibition at 10 µM: 30.6%

## CCC(CC1CCCOC1)c1cc(O)c(C(c2ccccc2)C2CC2)c(=O)o1 (centres unmarked) [Example 61, 3-(Cyclopropyl-phenyl-methyl)-4-hydroxy-6-(1-(tetrahydro-pyran-3-ylmethyl)-propyl)-pyran-2-one]
  inhibition at 0.41 µM: 100%
  inhibition at 1.23 µM: 101%
  inhibition at 3.7 µM: 108%
  inhibition at 11 µM: 111%
  inhibition at 33 µM: 111%
  Ki: 13 nM
HIV-1 Dose 100.000 uM
  inhibition at 100 µM: 103%
